PubChem BioAssay (NCI)
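Grown in 96-well plates, cells were treated for 48 hours with each compound at five concentrations. Insufficient inhibition: endpoint recorded as highest concentration tested. GI50: concentration for 50% inhibition of growth. TGI is the concentration that stops growth completely.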

Experiments:
Assay in all cases: NCI anticancer screen, dose series, 48 h
[1] = test system: ACHN renal
[2] = test system: SW-620 colon
[3] = test system: OVCAR-4 ovarian
[4] = test system: HCT-116 colon
[5] = test system: UACC-257 melanoma
[6] = test system: MCF7 breast
[7] = test system: KM12 colon
[8] = test system: SK-OV-3 ovarian
[9] = test system: NCI-H522 lung
[10] = test system: SK-MEL-5 melanoma

## O=C(Nc1ccccc1)Nc1cccc(Oc2nnc(Cl)c3ccccc23)c1
[1]
  GI50: 3.47 µM
  TGI: 18.7 µM
[2]
  GI50: 8.41 µM
  TGI: > 25 µM
[3]
  GI50: 1.74 µM
  TGI: 12.2 µM
[4]
  GI50: 3.06 µM
  TGI: 9.77 µM
[5]
  GI50: 3.96 µM
  TGI: > 25 µM
[6]
  GI50: 1.32 µM
  TGI: 6.32 µM
[7]
  GI50: 5.51 µM
  TGI: > 25 µM
[8]
  GI50: 1.46 µM
  TGI: 5.51 µM
[9]
  GI50: 2.8 µM
  TGI: 9.68 µM
[10]
  GI50: 4.56 µM
  TGI: 18.6 µM

## C=C1C(=O)O[C@H]2[C@H]1CC/C(COC(=O)c1ccccc1)=C\CC[C@@]1(C)O[C@@H]21
[1]
  GI50: 1.37 µM
  TGI: 2.86 µM
[2]
  GI50: 0.407 µM
  TGI: 1.75 µM
[3]
  GI50: 2.64 µM
  TGI: 9.87 µM
[4]
  GI50: 0.469 µM
  TGI: 1.82 µM
[5]
  GI50: 1.51 µM
  TGI: 3.37 µM
[6]
  GI50: 0.497 µM
  TGI: 2.04 µM
[7]
  GI50: 2.57 µM
  TGI: 8.42 µM
[8]
  GI50: 11.8 µM
  TGI: 24 µM
[9]
  GI50: 1.06 µM
  TGI: 2.79 µM
[10]
  GI50: 1.63 µM
  TGI: 3.03 µM

## Nc1ncnc2c1cnn2Cc1ccc(Cl)cc1
[1]
  TGI: > 100 µM
[2]
  TGI: > 100 µM
[3]
  TGI: > 100 µM
[4]
  TGI: > 100 µM
[5]
  TGI: > 100 µM
[6]
  TGI: > 100 µM
[7]
  TGI: > 100 µM
[8]
  GI50: > 100 µM
  TGI: > 100 µM
[9]
  TGI: > 100 µM
[10]
  TGI: > 100 µM

## OCC(O)C(O)C(O)/C=N/Nc1nc2ccccc2nc1-c1ccccc1 (centres undefined)
[1]
  GI50: > 100 µM
  TGI: > 100 µM
[2]
  GI50: > 100 µM
  TGI: > 100 µM
[3]
  GI50: 28.3 µM
  TGI: 72.2 µM
[4]
  GI50: > 100 µM
  TGI: > 100 µM
[5]
  GI50: > 100 µM
  TGI: > 100 µM
[6]
  GI50: 97.9 µM
  TGI: > 100 µM
[7]
  GI50: > 100 µM
  TGI: > 100 µM
[8]
  GI50: > 100 µM
  TGI: > 100 µM
[9]
  GI50: 72.7 µM
  TGI: > 100 µM
[10]
  GI50: 48.5 µM
  TGI: > 100 µM

## Fc1ccc2[nH]cc(SSc3c[nH]c4ccc(F)cc34)c2c1
[1]
  GI50: 4.34 µM
  TGI: 34.3 µM
[2]
  GI50: 8.22 µM
  TGI: 26 µM
[3]
  GI50: 3.87 µM
  TGI: 18.2 µM
[4]
  GI50: 3.98 µM
  TGI: > 100 µM
[5]
  GI50: 8.51 µM
  TGI: 25.3 µM
[6]
  GI50: 3.87 µM
  TGI: 20 µM
[7]
  GI50: 3.76 µM
  TGI: 16.1 µM
[8]
  GI50: 6.13 µM
  TGI: 22.8 µM
[9]
  GI50: 2.48 µM
  TGI: 7.67 µM
[10]
  GI50: 5.13 µM
  TGI: 18.3 µM

## CC(C)c1ccc(NC(=S)NC(=O)c2ccccc2)cc1
[1]
  TGI: 55.9 µM
[2]
  TGI: 62.8 µM
[3]
  TGI: 55.2 µM
[4]
  TGI: 39.3 µM
[5]
  TGI: 37.5 µM
[6]
  TGI: 48.8 µM
[7]
  TGI: 46.5 µM
[8]
  TGI: > 100 µM
[9]
  TGI: 37.5 µM
[10]
  TGI: 27 µM

## COc1ccc2c(c1)/C(=N/OC(C)=O)c1c-2c(=O)[nH]c2ccccc12
[1]
  GI50: 14.2 µM
  TGI: 28.2 µM
[2]
  GI50: 14.2 µM
  TGI: 30.3 µM
[3]
  GI50: 4.88 µM
  TGI: 21.3 µM
[4]
  GI50: 3.35 µM
  TGI: 12.4 µM
[5]
  GI50: 17.3 µM
  TGI: 34.2 µM
[6]
  GI50: 66.3 µM
  TGI: > 100 µM
[7]
  GI50: 3.84 µM
  TGI: 19.6 µM
[9]
  GI50: 13.5 µM
  TGI: 31.4 µM
[10]
  GI50: 5.79 µM
  TGI: 19.4 µM
